Results: patent US4055468A, “Processes for producing physiologically active peptide and its N-acyl derivatives” (priority 1974, dated 1977)
Where two headings read alike, the source gives them in different places. Each block holds one compound with its values, some of them ahead of it.

Legend:
pepsin = target: T1, pepsin (Sus scrofa, UniProt P00791); assay: Assay of pepsin-inhibitory activity (casein digestion); assay type: biochemical
T1 construct: purchased SIGMA 2XCRY (grade as printed; no catalogue number)
T1 sequence (P00791 60-385): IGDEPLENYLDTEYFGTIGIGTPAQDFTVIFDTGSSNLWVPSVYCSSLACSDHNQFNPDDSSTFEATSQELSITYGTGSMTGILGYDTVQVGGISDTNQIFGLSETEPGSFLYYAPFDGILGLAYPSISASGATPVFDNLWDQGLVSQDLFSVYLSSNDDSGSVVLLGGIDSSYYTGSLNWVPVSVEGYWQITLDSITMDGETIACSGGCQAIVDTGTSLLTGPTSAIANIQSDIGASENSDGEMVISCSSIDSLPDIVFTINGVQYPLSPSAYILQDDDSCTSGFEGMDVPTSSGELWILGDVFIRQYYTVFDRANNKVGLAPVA
Description: Assay of pepsin-inhibitory activity in this invention was performed according to the following method: A mixture of 1 ml of 0.6%, by weight, highly purified case in dissolved in 0.08 M lactate buffer solution, pH 2.2, 0.7 ml of 0.02M KCl--HCl buffer solution, pH 2.0, and 0.2 ml of solution containing the compound sample was incubated at 37° C for 3 minutes. To this mixture 4 meg of pepsin (SIGMA, 2XCRY) dissolved in 0.1 ml of 0.2M KCl--HCl buffer solution were added. The mixture was incubated at 37° C for 30 minutes. The reaction was stopped by the addition of 2.0 ml of 1.7M perchloric acid. After 1 hour at room temperature, the optical density (a) of the supernatant liquid was read at 280 mμ. An inhibition rate was obtained according to:
where (b) is the optical density at 280 mμ of the tube without the sample solution.
The ID50 is defined as the amount necessary for 50% of the inhibition rate.

Cathepsin D = Cathepsin D (Homo sapiens, UniProt P07339); assay: anti-cathepsin D activity; assay type: biochemical
Chain of Cathepsin D (P07339 65-412, species assumed): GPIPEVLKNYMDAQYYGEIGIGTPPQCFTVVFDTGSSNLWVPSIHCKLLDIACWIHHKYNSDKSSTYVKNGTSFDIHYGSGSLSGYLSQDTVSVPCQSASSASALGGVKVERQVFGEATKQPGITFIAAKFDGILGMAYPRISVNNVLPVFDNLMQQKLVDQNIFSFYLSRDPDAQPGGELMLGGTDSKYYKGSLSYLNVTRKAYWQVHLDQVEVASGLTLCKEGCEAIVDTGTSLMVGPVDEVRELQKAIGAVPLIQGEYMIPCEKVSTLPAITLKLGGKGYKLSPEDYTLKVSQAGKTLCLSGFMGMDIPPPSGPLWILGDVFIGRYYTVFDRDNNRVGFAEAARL
Description: (§1) As an example of one of the physiological activities of the peptide and N-acyl derivatives thereof obtained according to the present invention, anti-pepsin and anti-cathepsin D activities and also acute toxicity are given in Table 8. The activities (ID50) were assayed according to the method described above and The Journal of Antibiotics 25 689 (1972). The anti-protease activities of the peptide and N-acyl derivatives thereof are extremely high.

mice [1] = assay: Acute toxicity by abdominal injection; assay type: in vivo
Description: as §1
Acute toxicity was examined by administering the compounds to the mice by
(§2) The peptide Val--X--Ala--X and its N-acyl derivatives according to this invention have low toxicity; mice, dogs, rats and rabbits tolerated oral administration of more than 2.000 mg/kg. of the compounds, and LD50 of the compounds for animals when administered by intraperitoneal injections are shown in Table 8. Daily 250 mg/kg oral administrations of each of the compounds to rats for 90 days caused no toxicity, and the rats grew at the normal growth rate.

[2] = system: enzyme decomposing R--Val--Val--X--Ala--X to Val--X--Ala--X; assay: Effect of various inhibitors and metal ions on enzyme activity; assay type: biochemical, Bacillus sphaericus ATCC 14577
Stomach ulcers in rats = assay: Stress stomach ulcers in rats (method of Takagi et al.); assay type: in vivo; conditions: 50 - 200 mg/kg immediately after the stress and once daily for 4 days
Description: Stomach ulcers in rats made by the method described by Takagi et al. in the Japanese Journal of Pharmacology, 18, 9-19, 1958, that is, placing male rats in a cage at 23° C. for 22 hours, are protected or therapeutically treated by the compounds. […] When the dose was 10 mg/kg, the inhibition percentage of the ulcers was 50 - 60%.

Solubility in solvents = assay type: physicochemical
dogs = assay: Tolerated oral administration; assay type: in vivo
Description: as §2

mice [3] = assay: Tolerated oral administration; assay type: in vivo
Description: as §2

rabbits = assay: Tolerated oral administration; assay type: in vivo
Description: as §2

rats = assay: Tolerated oral administration; assay type: in vivo
Description: as §2

[4] = system: enzyme decomposing R--Val--Val--X--Ala--X to Val--X--Ala--X; assay: Substrate specificity of the purified enzyme; assay type: biochemical, Bacillus sphaericus ATCC 14577; conditions: in words
Description: A medium having the same composition as in Experiment 1 was prepared and 50 ml of the medium was poured into a 500 ml flask. After sterilization at 120° C for 10 minutes, the medium was inoculated with Bacillus sphaericus ATCC 14577 and incubated on a reciprocal shaker (120 r.p.m.) at 30° C for 24 hours to obtain a seed culture. To a 20l jar fermentor was added to 10l of the medium having the same composition, sterilized at 120° C for 15 minutes and inoculated with the seed culture. The cultivation was performed at 30° C with agitation (300 r.p.m.) and aeration (5l/minute).
After 15 hours growth, isovalery-L-valvy-L-valyl-4-amino-3-hydroxy-6-methylheptanoyl-L-alanyl-4-amino-3-hydroxy-6-methylheptanoic acid was added to the culture in a concentration of 50 meg/ml and the cultivation was continued for another 33 hours. Cells were harvested by centrifugation with a Spharpless centrifuge, suspended in 2l of cold 0.01M phosphate buffer, pH 7.0, and disrupted by sonication 20 Kc for 2 minutes. These and the following procedures were carried out under 4° C. A supernatant from the sonicate was heated at 60° C for 10 minutes at pH 7.0. The resulting precipitate was removed by centrifugation and 3.8 g of streptomycin sulfate was added to 1.7l of the supernatant. Precipitated nucleic acid was removed by centrifugation. […]

[5] = Concentration 2 mM, control 100
[6] = Concentration 10 mM, control 100

Structure (SMILES): CC(=O)N[C@H](C(=O)NC(CC(C)C)C(O)CC(=O)N[C@@H](C)C(=O)NC(CC(C)C)C(O)CC(=O)O)C(C)C (stereo partly drawn) [Acetyl--Val--X--Ala--X, N--acetyl--Val--X--Ala--X]
IC50 (pepsin): 56.9 nM | IC50 (Cathepsin D): 771 nM | Acute toxicity(mg/kg) LD0 (mice [1]): ≥ 4000 mg/kg

Structure (SMILES): CC(C)C[C@H](NC(=O)[C@H](C)NC(=O)C[C@H](O)[C@H](CC(C)C)NC(=O)[C@@H](NC(=O)C(C)C)C(C)C)[C@@H](O)CC(=O)O [Isobutyryl--Val--X--Ala--X, N--isobutyryl--Val--X--Ala--X]
IC50 (Cathepsin D): 489 nM

Structure (SMILES): O=C(O)c1cc[c]([Hg][Cl])cc1 [p-Chloromercuribenzoate]
Inhibition of the enzyme [2]: Inhibition | Relative activity [2, 5]: 2

Structure (SMILES): O=C(O)CI [Monoiodoacetic Acid]
Relative activity [2]: 84

Structure (SMILES): OCCS [β-Mercaptoethanol]
Inhibition of the enzyme ([2]; 2mM): Inhibition | Relative activity [2, 5]: 0

Structure (SMILES): [Ca+2].[Cl-].[Cl-] [Calcium Choride]
increase in activity ([2]; 10 mM): 29% | Relative activity [2, 5]: 110 | Relative activity [2, 6]: 129

Structure (SMILES): [Cl][Co][Cl] [Cobalt Chloride]
increase in activity ([2]; 2mM): 34% | increase in activity ([2]; 10 mM): 66%

Inhibition of the enzyme ([2]; 2mM): Inhibition | Relative activity [2, 5]: 0
Structure (SMILES): O=C1CCC(=O)N1Br [N-Bromosuccinimide]

Structure (SMILES): CC(C)C[C@H](NC(=O)[C@H](C)NC(=O)C[C@H](O)[C@H](CC(C)C)NC(=O)[C@@H](NC(=O)c1ccccc1)C(C)C)[C@@H](O)CC(=O)O [Benzoyl--Val--X--Ala--X, N--benzoyl--Val--X--Ala--X]
IC50 (pepsin): 51.1 nM | IC50 (Cathepsin D): 82.4 nM | Acute toxicity(mg/kg) LD50 (mice [1]): 1350 mg/kg

Structure (SMILES): CC(C)CC(NC(=O)[C@H](C)NC(=O)CC(O)C(CC(C)C)NC(=O)[C@@H](NC(=O)COc1ccccc1)C(C)C)C(O)CC(=O)O (stereo partly drawn) [Phenoxyacetyl--Val--X--Ala--X, n--phenoxyacetyl--Val--X--Ala--X]
IC50 (Cathepsin D): 12.6 nM | Acute toxicity(mg/kg) LD50 (mice [1]): 1500 mg/kg

Structure (SMILES): CCCCCCCCCCCCCCCC(=O)N[C@H](C(=O)N[C@@H](CC(C)C)[C@@H](O)CC(=O)N[C@@H](C)C(=O)N[C@@H](CC(C)C)[C@@H](O)CC(=O)O)C(C)C [Palmitoyl--Val--X--Ala--X, N--palmitoyl--Val--X--Ala--X]
IC50 (Cathepsin D): 1480 nM

Structure (SMILES): CC(=O)[O-].CC(=O)[O-].[Hg+2] [Mercuric Acetate]
Relative activity [2]: 0

Structure (SMILES): [N-]=[N+]=[N-].[Na+] [NaN3]
Relative activity [2]: 100

Structure (SMILES): [Cl][Hg][Cl] [HgCl2]
Inhibition of the enzyme ([2]; 2mM): Inhibition

Inhibition of the enzyme ([2]; 2mM): Inhibition | Relative activity [2, 5]: 0
Structure (SMILES): O[C@H](CS)[C@H](O)CS (racemic) [Dithiothreitol]

Structure (SMILES): [Cl-].[Cl-].[Zn+2] [Zinc Chloride]
Relative activity [2, 5]: 66 | Relative activity [2, 6]: 44

Structure (SMILES): CC(C)CC(=O)N[C@H](C(=O)N[C@H](C(=O)N[C@@H](CC(C)C)[C@@H](O)CC(=O)N[C@@H](C)C(=O)N[C@@H](CC(C)C)[C@@H](O)CC(=O)O)C(C)C)C(C)C [pepstatin]
cure of ulcers (Stomach ulcers in rats): rapid cure of ulcers

Structure (SMILES): CC(=O)[O-].CC(=O)[O-].[Pb+2] [Lead Acetate]
Relative activity [2]: 43

Structure (SMILES): CC(C)C[C@H](NC(=O)[C@H](C)NC(=O)C[C@H](O)[C@H](CC(C)C)NC(=O)[C@@H](NC(=O)C(C)Oc1ccccc1)C(C)C)[C@@H](O)CC(=O)O (stereo partly drawn) [Phenoxypropionyl--Val--X--Ala--X, N--2--phenoxypropionyl--Val--X--Ala--X]
IC50 (Cathepsin D): 15.4 nM | Acute toxicity(mg/kg) LD50 (mice [1]): 2100 mg/kg

Structure (SMILES): CC(C)CC(=O)N[C@H](C(=O)N[C@@H](CC(C)C)[C@@H](O)CC(=O)N[C@@H](C)C(=O)N[C@@H](CC(C)C)[C@@H](O)CC(=O)O)C(C)C [Isovaleryl--Val--X--Ala--X, N--isovaleryl--Val--X--Ala--]
IC50 (Cathepsin D): 76.7 nM | Acute toxicity(mg/kg) LD0 (mice [1]): ≥ 3000 mg/kg

Relative activity [2, 5]: 30
Structure (SMILES): O=C(O)CN(CCN(CC(=O)O)CC(=O)O)CC(=O)O [Ethylenediaminetetraacetic Acid]

Structure (SMILES): CC(C)C[C@H](NC(=O)[C@H](C)NC(=O)C[C@H](O)[C@H](CC(C)C)NC(=O)[C@@H](N)C(C)C)[C@@H](O)CC(=O)O [Val--X--Ala--X, L-valyl-4-amino-3-hydroxy-6-methylheptanoyl-L-alanyl-4-amino-3-hydroxy-6-methylheptanoic acid]
IC50 (Cathepsin D): 12900 nM | Acute toxicity(mg/kg) LD0 (mice [1]): ≥ 5000 mg/kg | solubility (Solubility in solvents; ether, ethyl acetate, and butyl acetate): insoluble | solubility (Solubility in solvents; methanol, ethanol, pyridine, and acetic acid): soluble | solubility (Solubility in solvents; n-proponal, n-butanol, n-amyl alcohol and acetone): slightly soluble | tolerated oral administration (dogs): more than 2.000 mg/kg | tolerated oral administration (mice [3]): more than 2.000 mg/kg | tolerated oral administration (rabbits): more than 2.000 mg/kg | tolerated oral administration (rats): more than 2.000 mg/kg

Structure (SMILES): c1cnc2c(c1)ccc1cccnc12 [o-Phenanthroline]
Inhibition of the enzyme ([2]; 2mM): Inhibition | Relative activity [2, 5]: 0

susceptibility to the enzyme (hydrolysis) [4]: not split
Structure (SMILES): CC(C)CC(=O)N[C@H](C(=O)O)C(C)C [IVA--Val]
